We go through 14 molecules from patent US20230406865A1, “CRYSTAL FORM OF FREE BASE OF INHIBITOR CONTAINING BICYCLIC RING DERIVATIVE AND PREPARATION METHOD AND APPLICATION OF CRYSTAL FORM” (SHANGHAI HANSOH BIOMEDICAL CO., LTD., priority 2020, published 2023).

One data set addresses T1, RET kinase (Homo sapiens, UniProt P07949).
T1 construct: purchased Carna 08-159
As to the kind of experiment: HTRF kinase activity inhibition, RET wild-type. The format is biochemical. Conditions: ATP at Km. The text has this:
2.2 Experimental Reagents: • RET enzyme was purchased from Carna Company, and the article number was 08-159; • RET M918T enzyme was purchased from Carna Company, and the article number was 08-508; • KIF5B-RET was purchased from SignalChem Company, the article number was R02-19FG-05; • CCDC6-RET was purchased from SignalChem Company, the article number was R02-19BG-05; • RET V804M enzyme was purchased from Thermofisher Company, and the article number was PV6223; • RET V804L enzyme was purchased from Thermofisher Company, and the article number was PV4397; • HTRF KinEASE-TK kit was purchased from Cisbio Company, and the article number was 62TK0PEC; • ATP was purchased from Thermofisher Company, and the article number was PV3227; • 384-well plate was purchased from PerkinElmer Company, and the article number was 6007290.
In this experiment, a homogeneous time-resolved fluorescence (HTRF) method was used for the detection of compounds on RET kinase activity.
Background: TR-FRET usually uses a lanthanide donor and a delayed reading to cut background.

For a further data set, the target named is T2, KDR kinase (Homo sapiens, UniProt P35968).
T2 construct: purchased Carna 08-191
As to the kind of experiment: HTRF kinase activity inhibition, KDR. The data set is classed as biochemical. As to conditions: for IC50: HTRF, ATP at Km; for Ratio (KDR/RET): KDR IC50 / RET IC50. An excerpt:
2.2 Experimental Reagents: • KDR kinase was purchased from Carna Company, and the article number was 08-191; • HTRF KinEASE-TK kit was purchased from Cisbio Company, and the article number was 62TK0PEC; • ATP was purchased from Thermofisher Company, and the article number was PV3227; • 384-well plate was purchased from PerkinElmer Company, and the article number was 6007290.
In this experiment, the homogeneous time-resolved fluorescence (HTRF) method was used for the detection of compounds on KDR kinase activity.

A short description of data set [1]: Balb/C mouse pharmacokinetics, oral 5 mg/kg. The data set is classed as in vivo, Balb/C mice. As to conditions: male, p.o. 5 mg/kg, plasma. On the procedure:
The pharmacokinetic behavior of the following compound embodiments, administered orally at a dose of 5 mg/kg in plasma in mice, was studied using Balb/C mice as test animals.
Balb/C Mouse 6/embodiment, male, Shanghai Jiesijie Laboratory Animal Co., Ltd, Animal Production License No. (SCXK (Shanghai) 2013-0006 N0.311620400001794).
Balb/C mice, males; p.o. after overnight fasting, respectively, at a dose of 5 mg/kg, administered in a volume of 10 mL/kg.
0.5% CMC-Na (1% Tween80) was dissolved by ultrasound, and prepared into clear solution or uniform suspension.
Before and after administration, 0.1 mL of blood was collected from mice at 0, 0.5, 1, 2, 4, 6, 8 and 24 hours by orbital collection, placed in EDTA-K2 tubes, centrifuged at 6000 rpm at 4° C. for 6 minutes to separate plasma, and stored at −80° C.
2.5 Sample Handling: • 1) 40 μL of plasma sample was precipitated by adding 160 μL of acetonitrile, mixed and centrifuged at 3500×g for 5-20 minutes. • 2) 100 μL of the supernatant solution after treatment was taken to analyze the concentration of the test compound by LC/MS/MS.
2.6 Liquid Phase Analysis • Liquid phase conditions: Shimadzu LC-20AD pump • Mass spectrometry conditions: AB Sciex API 4000 mass spectrometer • Chromatographic column: phenomenex Gemiu 5 μM C18 50×4.6 mm • Mobile phase: Liquid A was 0.1% formic acid aqueous solution, liquid B was acetonitrile • Flow rate: 0.8 mL/min • Elution time: 0-4.0 minutes, the eluent was as follows:
The main pharmacokinetic parameters were calculated by WinNonlin 6.1 and the results of the mouse pharmacokinetic experiments were shown in Table 13 below.

T1 sequence (P07949 29-1114): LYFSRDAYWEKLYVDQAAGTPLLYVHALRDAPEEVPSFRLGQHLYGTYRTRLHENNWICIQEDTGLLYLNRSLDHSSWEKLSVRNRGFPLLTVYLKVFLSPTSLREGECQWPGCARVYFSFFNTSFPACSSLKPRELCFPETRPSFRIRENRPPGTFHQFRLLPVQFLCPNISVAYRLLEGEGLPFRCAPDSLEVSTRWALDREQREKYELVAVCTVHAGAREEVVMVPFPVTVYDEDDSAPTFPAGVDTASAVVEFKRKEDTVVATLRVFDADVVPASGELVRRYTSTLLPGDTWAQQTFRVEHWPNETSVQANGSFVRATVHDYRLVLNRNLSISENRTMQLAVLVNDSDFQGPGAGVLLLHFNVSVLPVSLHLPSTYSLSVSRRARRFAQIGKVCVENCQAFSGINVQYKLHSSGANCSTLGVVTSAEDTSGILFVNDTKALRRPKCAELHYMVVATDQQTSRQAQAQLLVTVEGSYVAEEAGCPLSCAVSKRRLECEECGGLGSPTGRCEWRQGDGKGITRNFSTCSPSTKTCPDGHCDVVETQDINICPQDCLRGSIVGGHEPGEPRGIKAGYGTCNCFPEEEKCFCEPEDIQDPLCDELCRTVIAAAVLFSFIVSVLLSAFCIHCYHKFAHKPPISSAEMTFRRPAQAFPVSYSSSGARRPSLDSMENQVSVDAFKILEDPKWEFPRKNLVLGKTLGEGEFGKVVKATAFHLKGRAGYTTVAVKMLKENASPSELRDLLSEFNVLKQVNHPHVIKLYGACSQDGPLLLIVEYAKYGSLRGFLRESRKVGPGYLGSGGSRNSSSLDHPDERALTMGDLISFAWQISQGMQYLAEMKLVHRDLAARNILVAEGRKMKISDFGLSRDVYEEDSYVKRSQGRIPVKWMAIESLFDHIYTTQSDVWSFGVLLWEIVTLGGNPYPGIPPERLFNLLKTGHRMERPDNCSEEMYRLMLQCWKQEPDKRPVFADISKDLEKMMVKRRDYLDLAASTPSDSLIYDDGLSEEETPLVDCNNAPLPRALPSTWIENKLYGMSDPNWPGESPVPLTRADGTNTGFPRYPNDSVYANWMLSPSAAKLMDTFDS
T2 sequence (P35968 20-1356): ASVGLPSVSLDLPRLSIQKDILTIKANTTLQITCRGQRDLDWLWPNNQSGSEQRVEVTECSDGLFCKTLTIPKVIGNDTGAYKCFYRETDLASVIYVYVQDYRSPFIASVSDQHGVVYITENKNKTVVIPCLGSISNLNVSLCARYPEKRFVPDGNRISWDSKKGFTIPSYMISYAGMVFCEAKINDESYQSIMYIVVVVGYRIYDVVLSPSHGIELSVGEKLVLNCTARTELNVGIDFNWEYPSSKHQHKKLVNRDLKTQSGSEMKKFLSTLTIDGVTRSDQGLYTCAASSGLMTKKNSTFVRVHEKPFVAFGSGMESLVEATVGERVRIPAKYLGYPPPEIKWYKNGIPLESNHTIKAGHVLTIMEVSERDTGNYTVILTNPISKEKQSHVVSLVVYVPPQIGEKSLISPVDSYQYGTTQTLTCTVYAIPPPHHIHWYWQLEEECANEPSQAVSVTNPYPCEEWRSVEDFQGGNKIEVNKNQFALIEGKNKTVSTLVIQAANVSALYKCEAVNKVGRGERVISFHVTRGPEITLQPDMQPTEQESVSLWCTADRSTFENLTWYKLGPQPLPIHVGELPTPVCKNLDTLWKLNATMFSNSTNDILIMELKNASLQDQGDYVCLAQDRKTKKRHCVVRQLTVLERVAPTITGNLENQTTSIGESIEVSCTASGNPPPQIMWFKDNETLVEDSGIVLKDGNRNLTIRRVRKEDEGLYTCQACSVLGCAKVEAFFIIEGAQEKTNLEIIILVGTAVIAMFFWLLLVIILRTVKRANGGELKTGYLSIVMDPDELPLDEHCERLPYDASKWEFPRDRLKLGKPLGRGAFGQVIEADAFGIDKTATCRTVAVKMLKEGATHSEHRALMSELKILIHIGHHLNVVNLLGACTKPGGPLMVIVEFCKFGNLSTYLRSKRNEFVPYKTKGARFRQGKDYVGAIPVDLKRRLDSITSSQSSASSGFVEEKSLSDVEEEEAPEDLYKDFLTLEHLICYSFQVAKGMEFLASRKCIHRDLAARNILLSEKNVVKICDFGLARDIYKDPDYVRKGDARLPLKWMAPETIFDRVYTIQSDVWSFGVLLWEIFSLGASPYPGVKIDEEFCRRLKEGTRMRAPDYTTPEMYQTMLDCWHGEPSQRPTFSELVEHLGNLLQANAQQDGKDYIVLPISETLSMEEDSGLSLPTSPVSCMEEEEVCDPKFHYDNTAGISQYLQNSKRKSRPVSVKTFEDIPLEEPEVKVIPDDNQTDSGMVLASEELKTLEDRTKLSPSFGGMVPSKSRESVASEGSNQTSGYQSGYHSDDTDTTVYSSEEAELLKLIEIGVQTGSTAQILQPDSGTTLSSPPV

Molecule `CC1(C#N)CN(c2cc(-c3ccc(N4CCC(C)(NC(=O)c5ncccc5Cl)CC4)nc3)c3c(C#N)cnn3c2)C1` [Embodiment 96, 3-Chloro-N-(1-(5-(3-cyano-6-(3-cyano-3-methylazetidin-1-yl)pyrazolo[1,5-a]pyridin-4-yl)pyridin-2-yl)-4-methylpiperidin-4-yl)picolinamide] yielded an IC50 against RET kinase of 0.72 nM. Also, on KDR kinase, half-maximal inhibition (IC50) required 15.8 nM and the “Ratio (KDR/RET)” value worked out at 22.

In turn, `COc1ccc(CN2C3CC2CN(c2ccc(-c4cc(N5CC(C)(O)C5)cn5ncc(C#N)c45)cn2)C3)cn1` [Embodiment 33, 6-(3-Hydroxy-3-methylazetidin-1-yl)-4-(6-(6-((6-methoxypyridin-3-yl)methyl)-3,6-diazabicyclo[3.1.1]heptan-3-yl)pyridin-3-yl)pyrazolo[1,5-a]pyridine-3-carbonitrile] showed an IC50 on RET kinase of 0.4 nM. At KDR kinase, the IC50 was determined as 5.6 nM and the “Ratio (KDR/RET)” value worked out at 14.

In turn, `COc1ccc(CN2C3CC2CN(c2ccc(-c4cc(OCCCS(C)(=N)=O)cn5ncc(C#N)c45)cn2)C3)cn1` (stereo not drawn) [Embodiment 6, 4-(6-(6-((6-Methoxypyridin-3-yl)methyl)-3,6-diazabicyclo[3.1.1]heptan-3-yl)pyridin-3-yl)-6-(3-(S-methylsulfonimidoyl)propoxy)pyrazolo[1,5-a]pyridine-3-carbonitrile] gave an IC50 at RET kinase of 0.79 nM. In addition, at KDR kinase, the IC50 turned out to be 27.7 nM and the “Ratio (KDR/RET)” value is 35.

Regarding `CC1(NC(=O)c2ncccc2F)CCN(c2ccc(-c3cc(OCC4(C#N)CC4)cn4ncc(C#N)c34)cn2)CC1` [Embodiment 93, N-(1-(5-(3-Cyano-6-((1-cyanocyclopropyl)methoxy)pyrazolo[1,5-a]pyridin-4-yl)pyridin-2-yl)-4-methylpiperidin-4-yl)-3-fluoropicolinamide], the IC50 at RET kinase stood at 1.1 nM; at KDR kinase it was 150 nM. Further, on KDR kinase, the “Ratio (KDR/RET)” value came to 136.

`COc1ccc(CN2C3CC2CN(c2ccc(-c4cc(OCC5(C#N)CC(F)(F)C5)cn5ncc(C#N)c45)cn2)C3)cn1` [Embodiment 57, 6-((1-Cyano-3,3-difluorocyclobutyl)methoxy)-4-(6-(6-((6-methoxypyridin-3-yl)methyl)-3,6-diazabicyclo[3.1.1]heptan-3-yl)pyridin-3-yl)pyrazolo[1,5-a]pyridine-3-carbonitrile]: the IC50 at RET kinase turned out to be 1.1 nM; against KDR kinase, 209 nM. Also, the “Ratio (KDR/RET)” value on KDR kinase turned out to be 187.

In turn, `COc1ccc(CN2C3CC2CN(c2ccc(-c4cc(NC(=O)C(C)(C)O)cn5ncc(C#N)c45)cn2)C3)cn1` [Embodiment 42, N-(3-Cyano-4-(6-(6-((6-methoxypyridin-3-yl)methyl)-3,6-diazabicyclo[3.1.1]heptan-3-yl)pyridin-3-yl)pyrazolo[1,5-a]pyridin-6-yl)-2-hydroxy-2-methylpropanamide] registered an IC50 at RET kinase of 1.56 nM. Also, on KDR kinase, the IC50 is 105 nM and the “Ratio (KDR/RET)” value was found to be 67.

Consider `COc1ccc(CN2C3CC2CN(c2ccc(-c4cc(OCC5(C#N)COC5)cn5ncc(C#N)c45)cn2)C3)cn1` [Embodiment 37, 6-((3-Cyanooxetan-3-yl)methoxy)-4-(6-(6-((6-methoxypyridin-3-yl)methyl)-3,6-diazabicyclo[3.1.1]heptan-3-yl)pyridin-3-yl)pyrazolo[1,5-a]pyridine-3-carbonitrile], for which the IC50 against RET kinase amounted to 0.71 nM; against KDR kinase, 60.4 nM. Besides, the “Ratio (KDR/RET)” value on KDR kinase is 85.

On to `COc1ccc(CN2C3CC2CN(c2ccc(-c4cc(NC(=O)C5(C#N)CC5)cn5ncc(C#N)c45)cn2)C3)cn1` [Embodiment 74, 1-Cyano-N-(3-cyano-4-(6-(6-((6-methoxypyridin-3-yl)methyl)-3,6-diazabicyclo[3.1.1]heptan-3-yl)pyridin-3-yl)pyrazolo[1,5-a]pyridin-6-yl)cyclopropane-1-carboxamide], for which the IC50 against RET kinase was found to be 1.8 nM; on KDR kinase, 247 nM. Besides, the “Ratio (KDR/RET)” value on KDR kinase was 137.

With `COc1ccc(CN2C3CC2CN(c2ccc(-c4cc(OCC5CS(=N)(=O)C5)cn5ncc(C#N)c45)cn2)C3)cn1` (stereo not drawn) [Embodiment 12, 6-((1-Imino-1-hydroxy-1l6-thietan-3-yl)methoxy)-4-(6-(6-((6-methoxypyridin-3-yl)methyl)-3,6-diazabicyclo[3.1.1]heptan-3-yl)pyridin-3-yl)pyrazolo[1,5-a]pyridine-3-carbonitrile], the IC50 on RET kinase was found to be 1.3 nM. In addition, at KDR kinase, the IC50 was 69 nM and the “Ratio (KDR/RET)” value was 55.

Regarding `COc1ccc(CN2C3CC2CN(c2ccc(-c4cc(OCC5(C#N)CCC5)cn5ncc(C#N)c45)cn2)C3)cn1` [Embodiment 36, 6-((1-Cyanocyclobutyl)methoxy)-4-(6-(6-((6-methoxypyridin-3-yl)methyl)-3,6-diazabicyclo[3.1.1]heptan-3-yl)pyridin-3-yl)pyrazolo[1,5-a]pyridine-3-carbonitrile], at RET kinase, inhibition was half-maximal at 0.83 nM (IC50). The MRT in data set [1] (read-out: Average residence time MRT) is 3.8 h. For the same molecule, the Cmax in data set [1] (read-out: Blood concentration Cmax) came out at 1490 ng/mL. The AUC(0-t) in data set [1] (read-out: Curve area AUC0-t) was 6210 ng·h/mL. The AUC(0-inf) in data set [1] (read-out: Curve area AUC0-∞) amounted to 6220 ng·h/mL. Also, in data set [1] (read-out: Half-life t1/2 (converted)), the half-life was 2.19 h. Further, the Tmax in data set [1] (read-out: Peak time tmax) came to 0.5 h. At KDR kinase, 213 nM corresponded to half-maximal inhibition (IC50) and the “Ratio (KDR/RET)” value came to 257.

Turning to `CC1(O)CC2(CN(c3cc(-c4ccc(N5CCC(C)(NC(=O)c6ncccc6Cl)CC5)nc4)c4c(C#N)cnn4c3)C2)C1` [Embodiment 89, 3-Chloro-N-(1-(5-(3-cyano-6-(6-hydroxy-6-methyl-2-azaspiro[3.3]heptan-2-yl)pyrazolo[1,5-a]pyridin-4-yl)pyridin-2-yl)-4-methylpiperidin-4-yl)picolinamide], it took 1.1 nM to reach half-maximal inhibition at RET kinase (IC50). Also, at KDR kinase, it took 8.9 nM to reach half-maximal inhibition (IC50) and the “Ratio (KDR/RET)” value worked out at 8.

In the case of `CC1(NC(=O)c2ncccc2Cl)CCN(c2ccc(-c3cc(N4CC(C(C)(C)O)C4)cn4ncc(C#N)c34)cn2)CC1` [Embodiment 88, 3-Chloro-N-(1-(5-(3-cyano-6-(3-(2-hydroxypropan-2-yl)azetidin-1-yl)pyrazolo[1,5-a]pyridin-4-yl)pyridin-2-yl)-4-methylpiperidin-4-yl)picolinamide], the values for the IC50 against RET kinase and against KDR kinase were 1.2 nM and 61 nM, respectively. Further, the “Ratio (KDR/RET)” value at KDR kinase is given as 49.

For the molecule `COc1ccc(CN2C3CC2CN(c2ccc(-c4cc(N5CCC(C)(O)C5)cn5ncc(C#N)c45)cn2)C3)cn1` (stereo not drawn) [Embodiment 34, 6-(3-Hydroxy-3-methylpyrrolidin-1-yl)-4-(6-(6-((6-methoxypyridin-3-yl)methyl)-3,6-diazabicyclo[3.1.1]heptan-3-yl)pyridin-3-yl)pyrazolo[1,5-a]pyridine-3-carbonitrile], the IC50 against RET kinase worked out at 0.7 nM; against KDR kinase, 4.7 nM. For the same molecule, on KDR kinase, the “Ratio (KDR/RET)” value is reported as 7.

For `COc1ccc(CN2C3CC2CN(c2ccc(-c4cc(N5CCC(C)(O)CC5)cn5ncc(C#N)c45)cn2)C3)cn1` [Embodiment 35, 6-(4-Hydroxy-4-methylpiperidin-1-yl)-4-(6-(6-((6-methoxypyridin-3-yl)methyl)-3,6-diazabicyclo[3.1.1]heptan-3-yl)pyridin-3-yl)pyrazolo[1,5-a]pyridine-3-carbonitrile], half-maximal inhibition on RET kinase (IC50) was put at 0.49 nM. In addition, at KDR kinase, it took 6.2 nM to reach half-maximal inhibition (IC50) and the “Ratio (KDR/RET)” value is reported as 13.

For orientation: IC50 means the concentration needed to halve the response being measured. Low values mean greater potency, high ones weaker potency. The term MRT denotes a mean duration of stay, worked out from the concentration-time curve. Broadly, the Tmax is the time from dosing to the highest level.
